Data on 14 compounds can be found in PubChem BioAssay AID1963426 (Molecular Pharmacology Branch, DTP, NCI, 2024).

Where “and” joins values, the source holds several entries; their conditions need not be identical. Identical values can stand only once.

The subject of this assay is 186277-243-T-J2-PDC complex spheroid growth, % test/control. The assay is described as follows: Anticancer human tumor 186277-243-T-J2-PDC patient-derived colon adenocarcinoma cell line growth inhibition [Asc]. The following applies: for viability, T/C: stronger effect = lower value. The protocol:
Multicellular complex tumor spheroid response to apoptosis pathway targeting inhibitors Alrizomadlin, Pelcitoclax, and Dasminapant in combination with a variety of drugs and investigational agents in selected tumor cell lines
The MDM2 inhibitor alrizomadlin, the Bcl-2/Bcl-xL inhibitor pelcitoclax, and the IAPs inhibitor dasminapant were evaluated both individually and in combination with standard of care and investigational anticancer small molecules within a complex spheroid model of solid tumors. . Complex spheroids include a stromal component modeled by human endothelial cells (HUVEC) and fibroblasts modeled by human mesenchymal stem cells (MSCs). The concentration ranges selected for each drug and investigational agent were based upon clinically achievable concentrations if the clinical Cmax of the agent was known.
Compounds. The drugs and investigational agents: alrizomadlin (APG-115; NSC831270), pelcitoclax (APG-1252; NSC835773), dasminapant (APG-1387;NSC834197), TAK-243 (NSC785004), copanlisib (NSC809693), olaparib (NSC753686), talazoparib (NSC767125), cobimetinib (NSC 768068), eltanexor (KPT-8602, NSC 794443), abemaciclib (NSC 768073), sotorasib (NSC818433), adagrasib (NSC 831453), MRTX-1133 (NSC 836407), Iadademestat (ORY1001, NSC 806812), and RMC-4630 (NSC839698), were obtained from the NCI Developmental Therapeutics Program Chemical Repository. The FDA-approved anticancer drug set is available from the Developmental Therapeutics Program at https://dtp.cancer.gov/organization/dscb/obtaining/available plates.htm. […] The stock solutions were prepared in dimethyl sulfoxide (DMSO, Sigma-Aldrich, St. Louis, MO, cat. D2650) at 800-fold the tested concentration and stored at -70 degrees C prior to their use. All drugs and investigational agents were tested over a range starting from a high concentration at or near the clinical Cmax and decreasing in half-log increments. If the clinical Cmax for an agent had not been determined, the highest concentration tested was 10 microM.
The patient-derived cancer (PDC) cell lines include five colon adenocarcinomas: 186277-243-T-J2-PDC, 616215-338-R-J1-PDC, 439559-082-T-J2-PDC, 463943-066-T-J2-PDC, and 519858-162-T-J1-PDC; three pancreatic carcinomas: 323965-272-R-J2-PDC, 521955-158-R6-J3-PDC, and 521955-158-R2-J5-PDC; two uterine sarcomas: 327498-152-R-J2-PDC and 993429-296-R-J1-PDC; two rhabdomyosarcomas: 755483-174-R-J1-PDC and 772245-204-R-J1-PDC; two soft tissue sarcomas: 126254-015-R-J1-PDC and 494315-158-R-J1-PDC; two malignant fibrous histiocytomas: 317291-083-R-J1-PDC and 596521-263-R-J1-PDC; two breast carcinomas: 171881-019-R-J1-PDC and 885512-296-R-J2-PDC; and one ovarian carcinoma: 6556581-035-R-J-PDC were obtained from the NCI PDMR, (https://pdmr.cancer.gov). The established cell lines HSSY-2 synovial sarcoma (RRID:CVCL 8719), SYO-1 synovial sarcoma (RRID:CVCL_7146), MPNST malignant peripheral neural sheath tumor were obtained from the Sloan Kettering Institute. The following established cell lines were purchased from the American Type Culture Collection (ATCC, Manassas, VA), Sor the received from the NCI repository:, PANC-1 pancreatic carcinoma (CRL-1469, RRID:CVCL_0480), OVCAR-5 ovarian carcinoma (RRID:CVCL_1628), OVCAR-8 ovarian carcinoma (RRID:CVCL_1629), , MCF-7 breast carcinoma (CRL-12584, RRID:CVCL_0031), MDA-MB-231 breast carcinoma (CRL-12532, RRID:CVCL_0062), NCI-H1876 small cell lung carcinoma (CRL-5902, RRID:CVCL_1503), NCI-H510A small cell lung carcinoma (HTB-184, RRID:CVCL_1565), NCI-H1417 (CRL-5869, RRID:CVCL_1469), and NCI-H196 small cell lung carcinoma (CRL-5823, RRID:CVCL_1509). Dr. Peter Houghton (Greehey Children's Cancer Research Institute, University of Texas Health Science Center, San Antonio, TX) provided Rh-18 rhabdomyosarcoma (RRID:CVCL_1659). Pooled donor human umbilical vein endothelial cells (HUVEC, Lonza, cat. CC-2519) and human mesenchymal stem cells (hMSC, Lonza, cat. PT-2501) were purchased from Lonza (Walkersville, MD).
Cell Culture. […]
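Note: spheroids exposed to agents for 7 days.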
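Throughout, for viability, T/C: 100% = DMSO vehicle control wells.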

As for `C#Cc1c(F)ccc2cc(O)cc(-c3ncc4c(N5CC6CCC(C5)N6)nc(OCC56CCCN5CC(F)C6)nc4c3F)c12` (stereo not drawn), the viability, T/C (compound 0.0316 µM) is 103% and 107% and 88.1%; the viability, T/C (compound 0.1 µM) was 105% and 88.2% and 66.5%; the viability, T/C (compound 0.316 µM) was 76.8% and 48.2% and 40.8%; the viability, T/C (compound 1 µM) was 33.4% and 21.4% and 16.8%; the viability, T/C (compound 3.16 µM) was 19.4% and 12.1% and 11.2%; the viability, T/C (compound 10 µM) is 12.5% and 8.62% and 7.15%. Further, the IC50 (curve of compound) was 649 nM and 306 nM and 204 nM.

On to `C=C(F)C(=O)N1CCN(c2nc(OCC3CCCN3C)nc3c2CCN(c2cccc4cccc(Cl)c24)C3)CC1CC#N` (stereo not drawn), for which the viability, T/C by setting is: (compound 0.0316 µM) 107% and 98.5% and 102%; (compound 0.1 µM) 112% and 77.5% and 116%; (compound 0.316 µM) 107% and 83.6% and 103%; (compound 1 µM) 103% and 77.3% and 80.7%; (compound 3.16 µM) 96.5% and 85% and 109%. In addition, the 50% inhibitory concentration (IC50) (curve of compound) was 5700 nM and 5170 nM and 9280 nM.

Take `C=CC(=O)N1CCN(c2nc(=O)n(-c3c(C)ccnc3C(C)C)c3nc(-c4c(O)cccc4F)c(F)cc23)C(C)C1` (stereo not drawn): the viability, T/C was 105% and 89.2% and 107% (compound 0.0316 µM); 92.6% and 91.2% and 95.4% (compound 0.1 µM); 92.2% and 96.7% and 90.9% (compound 0.316 µM); 102% and 99.8% and 107% (compound 1 µM); 97.3% and 94.7% and 112% (compound 3.16 µM); 114% and 102% and 97.3% (compound 10 µM). Besides, the IC50 (curve of compound) was over 10000 nM.

For `CCN1C(C(=O)NC23CCC(C(=O)O)(CC2)CC3)C(c2cccc(Cl)c2F)C2(C(=O)Nc3cc(Cl)ccc32)C12CCCCC2` (stereo not drawn), the viability, T/C (compound 0.00949 µM) was 110% and 119%. Further, where the note is “curve of compound”, the concentration for half-maximal inhibition (IC50) was 1860 nM and > 3000 nM.

As to `CCN1CCN(Cc2ccc(Nc3ncc(F)c(-c4cc(F)c5nc(C)n(C(C)C)c5c4)n3)nc2)CC1`, the viability, T/C was 102% and 90.6% and 91.4% (compound 0.00316 µM); 88% and 106% and 84.1% (compound 0.01 µM); 116% and 109% and 93.2% (compound 0.0316 µM); 116% and 108% and 112% (compound 0.1 µM); 99.9% and 99.1% and 127% (compound 0.316 µM); 97.2% and 98.6% and 123% (compound 1 µM). For the same compound, the IC50 (curve of compound) is over 1000 nM.

With `CNC(C)C(=O)NC1CN(S(=O)(=O)c2cccc(S(=O)(=O)N3CCC4CCC(C(=O)NC(c5ccccc5)c5ccccc5)N4C(=O)C(NC(=O)C(C)NC)C3)c2)CCC2CCC(C(=O)NC(c3ccccc3)c3ccccc3)N2C1=O` (stereo not drawn), the viability, T/C is, setting by setting: (compound 0.00316 µM) 93.8% and 103%; (compound 0.1 µM) 104% [middle of 15 runs]. Also, the IC50 was over 1000 nM (compound alone, run of 10/03/2022) and over 1000 nM (curve of compound).

For the compound `COc1c(OCCCN2CCOCC2)ccc2c3n(c(=NC(=O)c4cnc(N)nc4)nc12)CCN3`, the viability, T/C runs as follows: (compound 0.00316 µM) 91% and 96.2% and 93.6%; (compound 0.01 µM) 102% and 91% and 105%; (compound 0.0316 µM) 58.9% and 54.5% and 69%; (compound 0.1 µM) 35.2% and 28.6% and 56.5%; (compound 0.316 µM) 17.5% and 17% and 29.3%; (compound 1 µM) 13.2% and 11.8% and 19.8%. Further, the IC50 (curve of compound) is 52.2 nM and 41.3 nM and 112 nM.

As for `Cc1c(S(C)(=O)=O)c(-c2cc(F)cc(N3CCN(c4ccc(NS(=O)(=O)c5ccc(NC(CCN6CCC(C(=O)OCCCP(=O)(O)O)CC6)CSc6ccccc6)c(S(=O)(=O)C(F)(F)F)c5)cc4)CC3)c2)c(-c2ccc(Cl)cc2)n1C(C)C` (stereo not drawn), the half-inhibitory concentration (IC50) (compound alone, run of 09/27/2022) was over 10000 nM.

Consider `Cc1nc(N2CCC3(CC2)COC(C)C3N)c(CO)nc1Sc1ccnc(N)c1Cl` (stereo not drawn), for which the viability, T/C was 92.7% and 111% and 93.3% (compound 0.00949 µM); 89.2% and 95.6% and 104% (compound 0.03 µM); 81% and 91.5% and 95.9% (compound 0.0949 µM); 102% and 103% and 96.9% (compound 0.3 µM); 102% and 114% and 95% (compound 0.949 µM); 109% (2×) and 93.4% (compound 3 µM). In addition, the IC50 (curve of compound) is over 3000 nM.

Consider `Cn1ncnc1[C@H]1c2n[nH]c(=O)c3cc(F)cc(c23)N[C@@H]1c1ccc(F)cc1`, for which the viability, T/C (compound 0.000316 µM) is 93% and 95.2% and 74.1%; the viability, T/C (compound 0.001 µM) is 99.3% and 88.2% and 97.6%; the viability, T/C (compound 0.00316 µM) is 108% and 104% and 99.5%; the viability, T/C (compound 0.01 µM) is 116% and 118% and 84.3%; the viability, T/C (compound 0.0316 µM) was 118% and 122% and 108%; the viability, T/C (compound 0.1 µM) was 111% and 134% and 100%. Further, the IC50 (curve of compound) is over 100 nM.

Take `NC(=O)C(=Cn1cnc(-c2cc(C(F)(F)F)cc(C(F)(F)F)c2)n1)c1cncnc1`: the viability, T/C runs as follows: (compound 0.000949 µM) 99.3% and 89.8% and 97.7%; (compound 0.003 µM) 80.2% and 78.8% and 94.8%; (compound 0.00949 µM) 96.9% and 100% and 103%; (compound 0.03 µM) 96.2% and 77.8% and 106%; (compound 0.0949 µM) 81.6% and 71.7% and 101%; (compound 0.3 µM) 12.6% and 11.8% and 30.5%. The half-inhibitory concentration (IC50) (curve of compound) is 161 nM and 141 nM and 218 nM.

With `NC1CCC(NC2CC2c2ccccc2)CC1` (stereo not drawn), the viability, T/C (compound 0.000316 µM) was 104% and 75.7% and 107%; the viability, T/C (compound 0.001 µM) was 96.8% and 96.6% and 112%; the viability, T/C (compound 0.00316 µM) was 101% and 79% and 98.9%; the viability, T/C (compound 0.01 µM) was 96.4% and 84.1% and 93.7%; the viability, T/C (compound 0.0316 µM) is 83.8% and 77.6% and 108%; the viability, T/C (compound 0.1 µM) was 79.2% and 72.9% and 88.8%. The half-inhibitory concentration (IC50) (curve of compound) was over 100 nM.

For the compound `O=C(c1cc(Cc2n[nH]c(=O)c3ccccc23)ccc1F)N1CCN(C(=O)C2CC2)CC1`, the viability, T/C (compound 0.0316 µM) is 98.1% and 91.9% and 98.5%; the viability, T/C (compound 0.1 µM) is 95.8% and 101% and 97.5%; the viability, T/C (compound 0.316 µM) was 94.8% and 99% and 102%; the viability, T/C (compound 1 µM) is 95.9% and 94.6% and 98.1%; the viability, T/C (compound 3.16 µM) was 105% and 117% and 121%; the viability, T/C (compound 10 µM) was 103% and 112% and 135%. In addition, the half-maximal inhibitory concentration (IC50) (curve of compound) is over 10000 nM.

Turning to `O=C(c1ccc(F)c(F)c1Nc1ccc(I)cc1F)N1CC(O)([C@@H]2CCCCN2)C1`, the viability, T/C reads like this: (compound 0.00316 µM) 87.9% and 90.5% and 94.8%; (compound 0.01 µM) 88.2% and 90.8% and 78.7%; (compound 0.0316 µM) 97.7% and 88.7% and 90.1%; (compound 0.1 µM) 59.7% and 58.8% and 96.4%; (compound 0.316 µM) 14.8% and 15.4% and 23.9%; (compound 1 µM) 9.12% and 8.82% and 13.1%. Where the note is “curve of compound”, the IC50 was 127 nM and 201 nM.

As a reminder, the viability, T/C is the ratio of treated to control. For orientation: IC50 means the point on the concentration scale where inhibition reaches its midpoint.
